Measured values reported in patent US20210238225A1, “PEPTIDOMIMETIC INHIBITORS OF THE PEPTIDYL-PROLYL CIS/TRANS ISOMERASE (PIN1)” (DANA-FARBER CANCER INSTITUTE, INC., priority 2018, published 2021).
Read-outs that look alike come from different tables or passages of the source. Non-standard residues stand in square brackets, D forms with d. Residues, ends and D or L forms follow the SMILES beside them. *: point of attachment. Phe(4-CONH2) = NC(=O)c1ccc(C[C@H](N)C(=O)O)cc1; Bpa = N[C@@H](Cc1ccc(C(=O)c2ccccc2)cc1)C(=O)O; Phe(3,5-F2) = N[C@@H](Cc1cc(F)cc(F)c1)C(=O)O; Phe(2-Br) = N[C@@H](Cc1ccccc1Br)C(=O)O; Phe(4-F) = N[C@@H](Cc1ccc(F)cc1)C(=O)O; 2Nal = N[C@@H](Cc1ccc2ccccc2c1)C(=O)O; Met(O2) = CS(=O)(=O)CC[C@H](N)C(=O)O; Bta = N[C@@H](Cc1csc2ccccc12)C(=O)O; NH(4-Me-benzyl) = Cc1ccc(CN*)cc1; NMeF = CN[C@@H](Cc1ccccc1)C(=O)O; Cha = N[C@@H](CC1CCCCC1)C(=O)O; Cit = NC(=O)NCCC[C@H](N)C(=O)O; Pip = O=C(O)[C@@H]1CCCCN1; Piperidide = C1CCN(*)CC1; Fluoroacetyl = O=C(CF)*; Acryloyl = C=CC(=O)*; ClAc = O=C(CCl)*; X1 = O=C(C1CO1)*

Molecular target: Pin1 (GST-Pin1) (Homo sapiens, UniProt Q13526)
Test: Fluorescence polarization (FP) assay, binding to Pin1
Conditions: competition with fluorescein-labeled peptide probe, 12 hours pre-incubation at 4° C., Kenakin Ki equation

Chain of Pin1 (GST-Pin1) (Q13526 whole entry): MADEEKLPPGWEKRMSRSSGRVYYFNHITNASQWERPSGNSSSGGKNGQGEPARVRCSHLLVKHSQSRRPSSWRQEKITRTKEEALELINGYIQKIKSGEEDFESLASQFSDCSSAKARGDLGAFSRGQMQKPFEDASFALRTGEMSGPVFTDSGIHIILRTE

COC(=O)CC[C@H](NC(=O)CCl)C(=O)N1CCCC[C@H]1C(=O)N[C@@H](Cc1c[nH]c2ccccc12)C(=O)N[C@@H](Cc1cc(F)cc(F)c1)C(=O)NCc1ccc(C)cc1 [Compound 11-24, Methyl (S)-4-(2-chloroacetamido)-5-((S)-2-(((S)-1-(((S)-3-(3,5-difluorophenyl)-1-((4-methyl-benzyl)amino)-1-oxopropan-2-yl)amino)-3-(1H-indol-3-yl)-1-oxopropan-2-yl)carbamoyl)piperidin-1-yl)-5-oxopentanoate] (ClAc-E(OMe)[Pip]W[Phe(3,5-F2)]-{NH(4-Me-benzyl)}) was tested, and the Ki (Ki, μM (FP Assay)) was > 10 µM.

For COC(=O)CC[C@H](NC(=O)C1CO1)C(=O)N1CCCC[C@H]1C(=O)N[C@@H](Cc1c[nH]c2ccccc12)C(=O)N[C@@H](CCCNC(N)=O)C(=O)NCc1ccc(C)cc1 (stereo partly drawn) [Compound 11-12, Methyl (4S)-5-((S)-2-(((S)-3-(1H-indol-3-yl)-1-(((S)-1-((4-methylbenzyl)amino)-1-oxo-5-ureido-pentan-2-yl)amino)-1-oxopropan-2-yl)carbamoyl)piperidin-1-yl)-4-(oxirane-2-carboxamido)-5-oxopentanoate] (X1-E(OMe)[Pip]W[Cit]-{NH(4-Me-benzyl)}), the Ki (read-out: Ki, μM (FP Assay)) was > 10 µM.

CS(=O)(=O)CC[C@H](NC(=O)CCl)C(=O)N1CCCC[C@H]1C(=O)N[C@@H](Cc1ccc2ccccc2c1)C(=O)N[C@@H](CCCNC(N)=O)C(N)=O [Compound 2-14, (S)—N—((S)-1-(((S)-1-Amino-1-oxo-5-ureidopentan-2-yl)amino)-3-(naphthalen-2-yl)-1-oxopropan-2-yl)-1-((S)-2-(2-chloroacetamido)-4-(methylsulfonyl)butanoyl)piperidine-2-carboxamide] (ClAc-[Met(O2)][Pip][2Nal][Cit]-NH2) gave a Ki (read-out: Ki, μM (FP Assay)) of 0.13 µM.

With C=CC(=O)N[C@H](CCC(=O)O)C(=O)N1CCCC[C@H]1C(=O)N[C@@H](Cc1ccc2ccccc2c1)C(=O)N[C@@H](CCC(N)=O)C(N)=O [Compound 2b-2, (R)-4-Acrylamido-5-((S)-2-(((S)-1-(((S)-1,5-diamino-1,5-dioxopentan-2-yl)amino)-3-(naphthalen-2-yl)-1-oxopropan-2-yl)carbamoyl)piperidin-1-yl)-5-oxopentanoic acid] (Acryloyl-[dE][Pip][2Nal]Q-NH2) the Ki (read-out: Ki, μM (FP Assay)) was > 10 µM.

In the case of NC(=O)NCCC[C@H](NC(=O)[C@H](Cc1c[nH]c2ccccc12)NC(=O)[C@@H]1CCCCN1C(=O)[C@H](CCC(=O)O)NC(=O)CF)C(N)=O [Compound 6b, (S)-5-((S)-2-(((S)-1-(((S)-1-Amino-1-oxo-5-ureidopentan-2-yl)amino)-3-(1H-indol-3-yl)-1-oxopropan-2-yl)carbamoyl)piperidin-1-yl)-4-(2-fluoroacetamido)-5-oxopentanoic acid] (Fluoroacetyl-E[Pip]W[Cit]-NH2), the Ki (Ki, μM (FP Assay)) is reported as > 10 µM.

In the case of NC(=O)[C@H](CO)NC(=O)[C@H](Cc1ccc2ccccc2c1)NC(=O)[C@@H]1CCCCN1C(=O)[C@H](CCC(=O)O)NC(=O)CCl [Compound 2b-12, (S)-5-((S)-2-(((S)-1-(((S)-1-Amino-3-hydroxy-1-oxopropan-2-yl)amino)-3-(naphthalen-2-yl)-1-oxopropan-2-yl)carbamoyl)piperidin-1-yl)-4-(2-chloroacetamido)-5-oxopentanoic acid] (ClAc-E[Pip][2Nal]S-NH2), the Ki (read-out: Ki, μM (FP Assay)) is reported as 0.23 µM.

NC(=O)c1ccc(C[C@H](NC(=O)[C@H](Cc2ccc3ccccc3c2)NC(=O)[C@@H]2CCCCN2C(=O)[C@H](CCC(=O)O)NC(=O)CCl)C(N)=O)cc1 [Compound 2-9, (S)-5-((S)-2-(((S)-1-(((S)-1-Amino-3-(4-carbamoylphenyl)-1-oxopropan-2-yl)amino)-3-(naphthalen-2-yl)-1-oxopropan-2-yl)carbamoyl)piperidin-1-yl)-4-(2-chloroacetamido)-5-oxopentanoic acid] (ClAc-E[Pip][2Nal][Phe(4-CONH2)]-NH2) was tested, and the Ki (read-out: Ki, μM (FP Assay)) was 0.33 µM.

With COC(=O)CC[C@H](NC(=O)CCl)C(=O)N1CCCC[C@H]1C(=O)N[C@@H](Cc1c[nH]c2ccccc12)C(=O)N[C@@H](Cc1ccc(O)cc1)C(=O)NCc1ccc(C)cc1 (single isomer, unassigned) [Compound 11-26] the Ki (read-out: Ki, μM (FP Assay)) was > 10 µM.

In the case of COC(=O)CC[C@@H](NC(=O)CCl)C(=O)N1CCCC[C@H]1C(=O)N[C@@H](Cc1c[nH]c2ccccc12)C(=O)N[C@@H](Cc1ccc(F)cc1)C(=O)NCc1ccc(C)cc1 [Compound 11-16, Methyl (R)-4-(2-chloroacetamido)-5-((S)-2-(((S)-1-(((S)-3-(4-fluorophenyl)-1-((4-methyl-benzyl)amino)-1-oxopropan-2-yl)amino)-3-(1H-indol-3-yl)-1-oxopropan-2-yl)carbamoyl)-piperidin-1-yl)-5-oxopentanoate] (ClAc-[dE](OMe)[Pip]W[Phe(4-F)]-{NH(4-Me-benzyl)}), the Ki (Ki, μM (FP Assay)) is reported as > 10 µM.

In the case of Cc1ccc(CNC(=O)[C@H](CCCNC(N)=O)NC(=O)[C@H](Cc2csc3ccccc23)NC(=O)[C@@H]2CCCCN2C(=O)[C@H](Cc2ccccc2)NC(=O)CCl)cc1 [Compound 11-33, (S)—N—((S)-3-(benzo[6]thiophen-3-yl)-1-(((S)-1-((4-methylbenzyl)amino)-1-oxo-5-ureidopentan-2-yl)amino)-1-oxopropan-2-yl)-1-((2-chloroacetyl)-L-phenylalanyl)-piperidine-2-carboxamide] (ClAc-F[Pip][Bta][Cit]-{NH(4-Me-benzyl)}), the Ki (read-out: Ki, μM (FP Assay)) is reported as 0.028 µM.

In the case of C=CC(=O)N[C@@H](CC(=O)O)C(=O)N1CCCC[C@H]1C(=O)N[C@@H](Cc1ccc2ccccc2c1)C(=O)N[C@@H](CCC(N)=O)C(N)=O [Compound 2-35, (S)-3-Acrylamido-4-((S)-2-(((S)-1-(((S)-1,5-diamino-1,5-dioxopentan-2-yl)amino)-3-(naphthalen-2-yl)-1-oxopropan-2-yl)carbamoyl)piperidin-1-yl)-4-oxobutanoic acid] (Acryloyl-D[Pip][2Nal]Q-NH2), the Ki (read-out: Ki, μM (FP Assay)) is reported as > 10 µM.

NC(=O)NCCC[C@H](NC(=O)[C@H](Cc1ccc(C(=O)c2ccccc2)cc1)NC(=O)[C@@H]1CCCCN1C(=O)[C@H](CCC(=O)O)NC(=O)CCl)C(N)=O [Compound 2-17, (S)-5-((S)-2-(((S)-1-(((S)-1-Amino-1-oxo-5-ureidopentan-2-yl)amino)-3-(4-benzoylphenyl)-1-oxopropan-2-yl)carbamoyl)piperidin-1-yl)-4-(2-chloroacetamido)-5-oxopentanoic acid] (ClAc-E[Pip][Bpa][Cit]-NH2) showed a Ki (read-out: Ki, μM (FP Assay)) of 0.11 µM.

For COC(=O)CC[C@H](NC(=O)CCl)C(=O)N1CCCC[C@H]1C(=O)N[C@@H](Cc1csc2ccccc12)C(=O)N[C@@H](CCCNC(N)=O)C(=O)NCc1ccc(C)cc1 [Compound 11-21, Methyl (S)-5-((S)-2-(((S)-3-(benzo[&]thiophen-3-yl)-1-(((S)-1-((4-methylbenzyl)amino)-1-oxo-5-ureidopentan-2-yl)amino)-1-oxopropan-2-yl)carbamoyl)piperidin-1-yl)-4-(2-chloroacetamido)-5-oxopentanoate] (ClAc-E(OMe)[Pip][Bta][Cit]-{NH(4-Me-benzyl)}), the Ki (Ki, μM (FP Assay)) was 0.015 µM.

In the case of Cc1ccc(CNC(=O)[C@H](CCCNC(N)=O)NC(=O)[C@H](Cc2c[nH]c3ccccc23)NC(=O)[C@@H]2CCCCN2C(=O)[C@H](Cc2ccccc2)NC(=O)C2CO2)cc1 (stereo partly drawn) [Compound 13, (2S)—N—((S)-3-(1H-Indol-3-yl)-1-(((S)-1-((4-methylbenzyl)amino)-1-oxo-5-ureidopentan-2-yl)amino)-1-oxopropan-2-yl)-1-((oxirane-2-carbonyl)-L-phenylalanyl)piperidine-2-carboxamide] (X1-F[Pip]W[Cit]-{NH(4-Me-benzyl)}), the Ki (read-out: Ki, μM (FP Assay)) is reported as 4.43 µM.

With CN(C(=O)CCl)[C@@H](Cc1ccccc1)C(=O)N1CCCC[C@H]1C(=O)N[C@@H](Cc1csc2ccccc12)C(=O)N[C@@H](CCCNC(N)=O)C(=O)N1CCCCC1 [Compound 11-42, (S)—N—((S)-3-(Benzo[6]thiophen-3-yl)-1-oxo-1-(((S)-1-oxo-1-(piperidin-1-yl)-5-ureidopentan-2-yl)amino)propan-2-yl)-1-(N-(2-chloroacetyl)-N-methyl-L-phenylalanyl)piperidine-2-carboxamide] (ClAc-[NMeF][Pip][Bta][Cit]-Piperidide) the Ki (read-out: Ki, μM (FP Assay)) was 0.109 µM.

For NC(=O)NCCC[C@H](NC(=O)[C@H](Cc1ccc2ccccc2c1)NC(=O)[C@H](CC1CCCCC1)NC(=O)[C@H](CCC(=O)O)NC(=O)CCl)C(N)=O [Compound 2-15, (6S,9S,12S,15S)-1-Amino-6-carbamoyl-15-(2-chloroacetamido)-12-(cyclohexylmethyl)-9-(naphthalen-2-ylmethyl)-1,8,11,14-tetraoxo-2,7,10,13-tetraazaoctadecan-18-oic acid] (ClAc-E[Cha][2Nal][Cit]-NH2), the Ki (Ki, μM (FP Assay)) was > 10 µM.

In the case of COC(=O)CC[C@H](NC(=O)CCl)C(=O)N1CCCC[C@H]1C(=O)N[C@@H](Cc1c[nH]c2ccccc12)C(=O)N[C@@H](Cc1ccccc1Br)C(=O)NCc1ccc(C)cc1 [Compound 11-27, Methyl (S)-5-((S)-2-(((S)-1-(((S)-3-(2-bromophenyl)-1-((4-methylbenzyl)amino)-1-oxopropan-2-yl)amino)-3-(1H-indol-3-yl)-1-oxopropan-2-yl)carbamoyl)piperidin-1-yl)-4-(2-chloroacetamido)-5-oxopentanoate] (ClAc-E(OMe)[Pip]W[Phe(2-Br)]-{NH(4-Me-benzyl)}), the Ki (Ki, μM (FP Assay)) is reported as > 10 µM.

For COC(=O)CC[C@H](NC(=O)CCl)C(=O)N1CCCC[C@H]1C(=O)N[C@@H](Cc1csc2ccccc12)C(=O)N[C@@H](Cc1ccc(F)cc1)C(=O)NCc1ccc(C)cc1 [Compound 11-22, Methyl (S)-5-((S)-2-(((S)-3-(benzo[b]thiophen-3-yl)-1-(((S)-3-(4-fluorophenyl)-1-((4-methylbenzyl)amino)-1-oxopropan-2-yl)amino)-1-oxopropan-2-yl)carbamoyl)piperidin-1-yl)-4-(2-chloroacetamido)-5-oxopentanoate] (ClAc-E(OMe)[Pip][Bta][Phe(4-F)]-{NH(4-Me-benzyl)}), the Ki (Ki, μM (FP Assay)) was > 10 µM.
